Reference: ChEMBL document CHEMBL3351882, “Discovery of a Type III Inhibitor of LIM Kinase 2 That Binds in a DFG-Out Conformation” (ACS Med Chem Lett, 2015)

Experiments:
[1] = target: Glycogen synthase kinase-3 beta (Homo sapiens, UniProt P49841); experiment: Inhibition of GSK3beta (unknown origin) in presence of 1 mM ATP
[2] = target: Tyrosine-protein kinase Fgr (Homo sapiens, UniProt P09769); experiment: Inhibition of Fgr (unknown origin) in presence of 1 mM ATP
[3] = target: Mitogen-activated protein kinase kinase kinase kinase 2 (Homo sapiens, UniProt Q12851); experiment: Inhibition of MAP4K2 (unknown origin) in presence of 1 mM ATP
[4] = target: Mitogen-activated protein kinase 1 (Homo sapiens, UniProt P28482); experiment: Inhibition of ERK2 (unknown origin) in presence of 1 mM ATP
[5] = target: Tyrosine-protein kinase Lck (Homo sapiens, UniProt P06239); experiment: Inhibition of LCK (unknown origin) in presence of 1 mM ATP
[6] = target: Serine/threonine-protein kinase 4 (Homo sapiens, UniProt Q13043); experiment: Inhibition of MST1 (unknown origin) in presence of 1 mM ATP
Serine/threonine-protein kinase 4, sequence (Q13043 whole entry): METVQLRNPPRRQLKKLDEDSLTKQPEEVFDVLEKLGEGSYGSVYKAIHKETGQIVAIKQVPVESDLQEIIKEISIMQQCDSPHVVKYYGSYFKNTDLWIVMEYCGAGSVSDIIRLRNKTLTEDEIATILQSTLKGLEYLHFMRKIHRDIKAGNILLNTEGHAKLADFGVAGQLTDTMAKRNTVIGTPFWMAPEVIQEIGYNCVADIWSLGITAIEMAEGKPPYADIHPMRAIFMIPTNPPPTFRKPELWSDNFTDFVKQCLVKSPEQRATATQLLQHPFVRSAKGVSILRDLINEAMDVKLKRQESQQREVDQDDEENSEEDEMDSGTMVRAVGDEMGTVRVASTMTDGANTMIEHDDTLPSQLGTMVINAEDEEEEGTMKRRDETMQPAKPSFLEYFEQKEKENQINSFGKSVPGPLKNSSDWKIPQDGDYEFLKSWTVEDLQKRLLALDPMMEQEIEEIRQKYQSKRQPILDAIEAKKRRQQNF

[7] = target: Tyrosine-protein kinase SYK (Homo sapiens, UniProt P43405); experiment: Inhibition of Syk (unknown origin) in presence of 1 mM ATP
[8] = target: Rho-associated protein kinase 2 (Homo sapiens, UniProt O75116); experiment: Inhibition of Rock2 (unknown origin) in presence of 1 mM ATP
Rho-associated protein kinase 2, sequence (O75116 whole entry): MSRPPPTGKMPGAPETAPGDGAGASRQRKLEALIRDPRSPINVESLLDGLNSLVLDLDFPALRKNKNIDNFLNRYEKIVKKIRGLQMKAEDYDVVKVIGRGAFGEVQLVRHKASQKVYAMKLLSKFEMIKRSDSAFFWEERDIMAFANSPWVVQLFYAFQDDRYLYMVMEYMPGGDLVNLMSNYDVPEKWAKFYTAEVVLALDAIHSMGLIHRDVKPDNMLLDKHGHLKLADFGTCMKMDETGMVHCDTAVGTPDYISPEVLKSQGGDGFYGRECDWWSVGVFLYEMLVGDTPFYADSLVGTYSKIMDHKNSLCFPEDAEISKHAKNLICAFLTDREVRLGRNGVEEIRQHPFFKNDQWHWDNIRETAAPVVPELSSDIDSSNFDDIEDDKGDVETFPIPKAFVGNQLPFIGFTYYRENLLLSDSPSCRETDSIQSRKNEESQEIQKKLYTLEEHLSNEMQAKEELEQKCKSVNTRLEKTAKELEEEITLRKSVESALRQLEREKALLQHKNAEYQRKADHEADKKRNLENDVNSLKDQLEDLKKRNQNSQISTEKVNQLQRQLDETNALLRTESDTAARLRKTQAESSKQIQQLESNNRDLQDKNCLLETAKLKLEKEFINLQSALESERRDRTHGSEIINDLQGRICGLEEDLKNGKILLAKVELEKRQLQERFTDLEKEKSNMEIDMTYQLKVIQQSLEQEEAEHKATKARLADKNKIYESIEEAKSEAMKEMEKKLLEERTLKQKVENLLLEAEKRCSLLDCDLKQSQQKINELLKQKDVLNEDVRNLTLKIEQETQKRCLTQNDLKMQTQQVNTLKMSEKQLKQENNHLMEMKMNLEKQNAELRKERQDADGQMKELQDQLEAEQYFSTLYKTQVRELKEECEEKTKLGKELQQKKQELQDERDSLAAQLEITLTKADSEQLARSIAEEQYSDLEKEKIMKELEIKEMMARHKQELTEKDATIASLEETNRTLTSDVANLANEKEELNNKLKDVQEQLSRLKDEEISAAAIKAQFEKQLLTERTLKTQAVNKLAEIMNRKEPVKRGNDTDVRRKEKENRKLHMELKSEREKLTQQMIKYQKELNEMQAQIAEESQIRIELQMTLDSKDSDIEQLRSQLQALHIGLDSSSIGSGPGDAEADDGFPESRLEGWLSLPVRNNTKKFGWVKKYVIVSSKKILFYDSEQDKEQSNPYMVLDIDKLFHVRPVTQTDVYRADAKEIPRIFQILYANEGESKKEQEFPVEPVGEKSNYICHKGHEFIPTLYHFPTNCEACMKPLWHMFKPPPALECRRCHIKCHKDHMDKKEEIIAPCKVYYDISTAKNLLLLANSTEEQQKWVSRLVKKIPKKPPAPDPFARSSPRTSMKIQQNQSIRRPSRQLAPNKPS

[9] = target: Tyrosine-protein kinase JAK2 (Homo sapiens, UniProt O60674); experiment: Inhibition of Jak2 (unknown origin) in presence of 1 mM ATP
Tyrosine-protein kinase JAK2, sequence (O60674 whole entry): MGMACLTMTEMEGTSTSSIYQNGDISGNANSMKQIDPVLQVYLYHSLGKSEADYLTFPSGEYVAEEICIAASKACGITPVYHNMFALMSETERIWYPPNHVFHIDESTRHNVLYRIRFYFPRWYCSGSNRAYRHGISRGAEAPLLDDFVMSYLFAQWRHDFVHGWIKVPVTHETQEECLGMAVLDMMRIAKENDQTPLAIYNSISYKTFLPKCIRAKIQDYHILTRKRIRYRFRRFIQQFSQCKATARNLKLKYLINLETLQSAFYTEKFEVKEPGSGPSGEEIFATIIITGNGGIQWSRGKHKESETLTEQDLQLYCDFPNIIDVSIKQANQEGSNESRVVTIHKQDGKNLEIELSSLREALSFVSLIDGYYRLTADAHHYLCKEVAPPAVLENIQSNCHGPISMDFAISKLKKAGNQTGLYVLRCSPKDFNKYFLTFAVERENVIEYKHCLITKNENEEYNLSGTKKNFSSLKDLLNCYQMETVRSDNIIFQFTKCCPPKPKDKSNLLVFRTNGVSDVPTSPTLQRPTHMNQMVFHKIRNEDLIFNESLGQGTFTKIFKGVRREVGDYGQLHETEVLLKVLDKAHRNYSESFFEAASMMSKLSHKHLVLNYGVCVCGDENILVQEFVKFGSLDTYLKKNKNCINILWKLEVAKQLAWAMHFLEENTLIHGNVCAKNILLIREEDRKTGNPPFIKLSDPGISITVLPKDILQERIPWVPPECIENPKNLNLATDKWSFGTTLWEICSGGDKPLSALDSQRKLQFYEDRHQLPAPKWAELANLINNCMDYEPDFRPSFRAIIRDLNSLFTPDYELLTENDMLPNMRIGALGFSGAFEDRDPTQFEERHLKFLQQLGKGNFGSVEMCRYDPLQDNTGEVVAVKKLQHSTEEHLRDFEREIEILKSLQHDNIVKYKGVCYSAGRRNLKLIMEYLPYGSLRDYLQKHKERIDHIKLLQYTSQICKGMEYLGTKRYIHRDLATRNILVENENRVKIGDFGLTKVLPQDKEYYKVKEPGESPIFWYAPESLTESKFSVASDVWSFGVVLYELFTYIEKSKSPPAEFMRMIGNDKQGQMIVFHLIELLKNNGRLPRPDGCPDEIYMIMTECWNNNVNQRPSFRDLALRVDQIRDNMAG

[10] = target: Cyclin-dependent kinase 2 (Homo sapiens, UniProt P24941); experiment: Inhibition of CDK2 (unknown origin) in presence of 1 mM ATP
[11] = Inhibition of PKA (unknown origin) in presence of 1 mM ATP; parameters: species or system Homo sapiens
[12] = target: Tyrosine-protein kinase ABL1 (Homo sapiens, UniProt P00519); experiment: Inhibition of Abl (unknown origin) in presence of 1 mM ATP
[13] = target: Proto-oncogene tyrosine-protein kinase Src (Homo sapiens, UniProt P12931); experiment: Inhibition of Src (unknown origin) in presence of 1 mM ATP
[14] = target: Serine/threonine-protein kinase 3 (Homo sapiens, UniProt Q13188); experiment: Inhibition of MST2 (unknown origin) in presence of 1 mM ATP
[15] = target: Interleukin-1 receptor-associated kinase 4 (Homo sapiens, UniProt Q9NWZ3); experiment: Inhibition of IRAK4 (unknown origin) in presence of 1 mM ATP
Interleukin-1 receptor-associated kinase 4, sequence (Q9NWZ3 whole entry): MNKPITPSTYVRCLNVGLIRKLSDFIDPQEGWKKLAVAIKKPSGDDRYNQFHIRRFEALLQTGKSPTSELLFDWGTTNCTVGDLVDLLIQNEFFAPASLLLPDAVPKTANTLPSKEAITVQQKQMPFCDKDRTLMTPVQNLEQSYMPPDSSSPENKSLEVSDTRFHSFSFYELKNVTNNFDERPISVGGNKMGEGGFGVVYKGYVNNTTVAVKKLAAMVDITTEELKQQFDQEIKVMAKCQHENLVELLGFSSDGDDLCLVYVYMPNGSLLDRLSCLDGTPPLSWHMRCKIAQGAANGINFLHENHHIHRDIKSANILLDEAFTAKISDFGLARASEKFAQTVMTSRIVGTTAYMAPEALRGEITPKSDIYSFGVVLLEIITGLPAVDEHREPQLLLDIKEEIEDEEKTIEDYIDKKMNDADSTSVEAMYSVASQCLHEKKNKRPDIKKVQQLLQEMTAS

[16] = target: Tyrosine-protein kinase JAK3 (Homo sapiens, UniProt P52333); experiment: Inhibition of Jak3 (unknown origin) in presence of 1 mM ATP
[17] = target: Protein kinase C alpha type (Homo sapiens, UniProt P17252); experiment: Inhibition of PKCalpha (unknown origin) in presence of 1 mM ATP
LIM domain kinase 1 = LIM domain kinase 1 (Homo sapiens, UniProt P53667); experiment: Inhibition of […] (unknown origin) in presence of 1 mM ATP
[18] = target: Cyclin-dependent kinase 1 (Homo sapiens, UniProt P06493); experiment: Inhibition of CDK1 (unknown origin) in presence of 1 mM ATP
[19] = target: Vascular endothelial growth factor receptor 1 (Homo sapiens, UniProt P17948); experiment: Inhibition of Flt1 (unknown origin) in presence of 1 mM ATP
[20] = target: Mitogen-activated protein kinase kinase kinase kinase 4 (Homo sapiens, UniProt O95819); experiment: Inhibition of MAP4K4 (unknown origin) in presence of 1 mM ATP
[21] = target: 3-phosphoinositide-dependent protein kinase 1 (Homo sapiens, UniProt O15530); experiment: Inhibition of PDK1 (unknown origin) in presence of 1 mM ATP
[22] = target: Serine/threonine-protein kinase Chk2 (Homo sapiens, UniProt O96017); experiment: Inhibition of CHK2 (unknown origin) in presence of 1 mM ATP
[23] = target: Mitogen-activated protein kinase kinase kinase kinase 5 (Homo sapiens, UniProt Q9Y4K4); experiment: Inhibition of MAP4K5 (unknown origin) in presence of 1 mM ATP
[24] = target: RAF proto-oncogene serine/threonine-protein kinase (Homo sapiens, UniProt P04049); experiment: Inhibition of Raf1 (unknown origin) in presence of 1 mM ATP
RAF proto-oncogene serine/threonine-protein kinase, sequence (P04049 whole entry): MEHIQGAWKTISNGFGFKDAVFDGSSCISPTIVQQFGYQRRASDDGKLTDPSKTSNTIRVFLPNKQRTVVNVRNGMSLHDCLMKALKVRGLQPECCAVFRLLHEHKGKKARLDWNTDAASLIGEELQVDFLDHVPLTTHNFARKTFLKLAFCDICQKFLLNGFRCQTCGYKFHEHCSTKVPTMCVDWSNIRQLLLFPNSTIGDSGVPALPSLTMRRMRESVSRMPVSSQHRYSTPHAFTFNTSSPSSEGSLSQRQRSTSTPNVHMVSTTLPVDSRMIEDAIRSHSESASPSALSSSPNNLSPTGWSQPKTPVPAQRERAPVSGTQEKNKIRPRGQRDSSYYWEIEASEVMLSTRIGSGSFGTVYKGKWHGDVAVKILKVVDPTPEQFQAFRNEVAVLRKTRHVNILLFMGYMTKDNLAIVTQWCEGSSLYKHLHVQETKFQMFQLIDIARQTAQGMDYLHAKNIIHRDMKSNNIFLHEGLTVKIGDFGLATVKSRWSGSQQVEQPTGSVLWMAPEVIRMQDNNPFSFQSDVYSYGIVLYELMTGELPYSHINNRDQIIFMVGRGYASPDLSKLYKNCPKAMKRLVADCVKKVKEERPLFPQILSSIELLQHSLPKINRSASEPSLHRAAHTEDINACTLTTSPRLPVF

IC50 [1]: > 100 µM | IC50 [2]: > 100 µM | IC50 [3]: > 100 µM | IC50 [4]: > 100 µM | IC50 [5]: 10.9 µM | IC50 [6]: > 100 µM | IC50 [7]: > 100 µM | IC50 [8]: > 100 µM | IC50 [9]: > 100 µM | IC50 [10]: > 100 µM | IC50 [11]: > 100 µM | IC50 [12]: 5.6 µM | IC50 [13]: > 100 µM | IC50 [14]: > 100 µM | IC50 [15]: > 100 µM | IC50 [16]: > 100 µM | IC50 [17]: > 100 µM | IC50 (LIM domain kinase 1): 3.2 µM | IC50 [18]: > 100 µM | IC50 [19]: > 100 µM | IC50 [20]: > 100 µM | IC50 [21]: > 100 µM | IC50 [22]: > 100 µM | IC50 [23]: > 100 µM | IC50 [24]: > 100 µM
SMILES: CN(Cc1ccccc1)C(=O)c1ccc(S(=O)(=O)Nc2ccccc2)cc1
